Data published in ChEMBL document CHEMBL1126001, “Physical parameters for brian uptake: optimizing log P, log D and pKa of T H A” (Bioorg Med Chem Lett, 1991).

How the values were obtained:
[1] = target: Acetylcholinesterase (Homo sapiens, UniProt P22303)
Description: In vitro inhibition of acetylcholinesterase isolated from human erythrocytes.

[2] = physchem; conditions: octanol/water
Description: Partition coefficient (logP)

[3] = physchem; conditions: buffer, pH 7.5
Description: Lipophilic dissociation constant is determined as a measure of partitioning of neutral molecules at pH 7.5

[4] = physchem
Description: Compound was evaluated for its acid dissociation constant

Sequence of Acetylcholinesterase (P22303 whole entry): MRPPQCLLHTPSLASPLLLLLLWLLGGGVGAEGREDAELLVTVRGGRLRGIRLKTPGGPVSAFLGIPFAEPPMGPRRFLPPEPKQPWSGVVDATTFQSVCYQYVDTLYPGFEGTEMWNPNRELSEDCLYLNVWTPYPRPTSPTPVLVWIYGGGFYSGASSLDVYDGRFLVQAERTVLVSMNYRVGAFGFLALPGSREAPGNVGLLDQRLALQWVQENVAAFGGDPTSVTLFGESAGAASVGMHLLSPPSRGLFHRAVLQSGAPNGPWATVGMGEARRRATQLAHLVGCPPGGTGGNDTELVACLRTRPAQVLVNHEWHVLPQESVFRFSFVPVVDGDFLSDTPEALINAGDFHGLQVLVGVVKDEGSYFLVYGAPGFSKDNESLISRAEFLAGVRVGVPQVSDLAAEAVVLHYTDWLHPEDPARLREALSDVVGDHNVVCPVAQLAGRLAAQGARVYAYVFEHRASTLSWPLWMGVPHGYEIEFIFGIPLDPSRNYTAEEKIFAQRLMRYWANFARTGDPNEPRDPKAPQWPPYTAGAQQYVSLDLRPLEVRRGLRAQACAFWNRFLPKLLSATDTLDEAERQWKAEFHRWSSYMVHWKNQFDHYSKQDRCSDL

| SMILES | IC50 [1] [nM] | logP [2] | logD [3] | pKa [4] |
| --- | --- | --- | --- | --- |
| Nc1c2c(nc3ccccc13)OCCC2 | 266 | 1.86 | 1.37 | 7.8 |
| Nc1c2c(nc3cccc(F)c13)CCCC2 | 78 | – | – | 9.1 |
| Nc1c2c(nc3cnccc13)CCCC2 | 2600 | – | – | 7.3 |
| Nc1c2c(nc3ccc(Cl)cc13)OCCC2 | 9810 | – | – | – |
| Nc1c2c(nc3cccc(Cl)c13)OCCC2 | 313 | – | – | 6.6 |
| Nc1c2c(nc3ncccc13)OCCC2 | 6260 | – | – | 6.4 |
| Nc1c2c(nc3cnccc13)OCCC2 | 42 | – | – | 5.6 |
| Nc1c2c(nc3cccc(F)c13)OCCC2 | 335 | – | – | 6.9 |
| COc1cccc2nc3c(c(N)c12)CCCC3 | 615 | – | – | 10.4 |
| Nc1c2c(nc3c1CCCC3)CCCC2 [OCTAAMINOACRIDINE] | 360 | – | – | 11 |
| Nc1c2c(nc3cccc(Cl)c13)CCCC2 | 39 | – | – | 9.3 |
| Cc1cccc2nc3c(c(N)c12)CCCC3 | 99 | – | – | 9.98 |
| Nc1c2c(nc3c1CCC3)CCCC2 [IPIDACRINE] | – | – | – | 10.2 |
| COc1cccc2nc3c(c(N)c12)CCCO3 | 606 | – | – | 8.11 |
| Nc1c2c(nc3ncccc13)CCCC2 | 429 | – | – | 8.8 |
| Nc1c2c(nc3c1CCCO3)CCCC2 | 455 | – | – | 7.8 |
| Nc1c2c(nc3c1CCCO3)CCC2 | 1120 | – | – | 7.8 |
| Nc1c2c(nc3ccc(Cl)cc13)CCCC2 | 3680 | – | – | – |
| Cc1cccc2nc3c(c(N)c12)CCCO3 | 150 | 2.28 | 1.63 | 8.06 |
